According to patent US20220305003A1, “METHODS OF TREATING CANCER WITH AN INHIBITOR OF ZNF827” (CHILDREN'S MEDICAL RESEARCH INSTITUTE, priority 2019, published 2022):

What was measured:
panel of 660 cell lines = test: Drug sensitivity (Sanger GDSC IC50) versus ZNF827 gene expression; type: cell-based; settings: natural log of the IC50 from Sanger GDSC v17.3; low log2(TPM) <1 vs normal; Nemenyi test, adjusted p-value<0.05
Procedure: ZNF827 gene expression for the 660 cell lines was plotted on a histogram and grouped by gene expression level, represented as log2(TPM), into “low” (<1), “normal” (>1, <5) and “high” (>5). […] The Nemenyi statistical test was used to test for significant differences between “low” and “normal” ZNF827 expression groups for drug sensitivity for each compound. P-values were then corrected for multiple testing using FDR correction. […] All statistical analysis was performed in R (version 3.6.0), using the “stats” (version 3.6.0) and “PMCMR” (version 4.3) libraries.

ATR-CHK1 pathway = test: Western blot of ATR downstream effectors (p-CHK1 S345, p-RPA2 S33, pCHK2); type: cell-based; settings: U-2 OS; agent alone (topotecan 2 μg/mL 24 hours, aphidicolin 1 μM 20 hours, or siRNA knockdown in unchallenged cells)
Procedure: Protein was extracted from 10^6 cells per sample by vigorous pipetting and incubation at room temperature for 30 minutes in 100 μL of EDTA-free 4× LDS buffer (106 mM Tris-Cl, 141 mM Tris-Base, 40% Glycerol, 2% LDS, 0.075% SERVA Blue G50) supplemented with 2.5% Benzonase® nuclease 25 U/μL (Novagen, Merck Millipore) and 2% beta-mercaptoethanol (Sigma). Following protein extraction, all samples were denatured at 90° C. for 15 minutes before resolving on NuPAGE® Novex® 4-12% Bis-Tris Mini Gels (Invitrogen) with 1×10^5 cells (10 μL) loaded per lane in NuPAGE® MES SDS running buffer (Invitrogen) at 200 V for 50 minutes. Gels were transferred onto a PVDF membrane (Immobilon-P, Millipore) in transfer buffer (190 mM glycine, 25 mM Tris and 10% methanol) at 100 V for 60 minutes. Membranes were stained with Ponceau-S for 30 minutes, de-stained then blocked for 1 hour at room temperature in 5% skim milk dissolved in PBS with 0.1% Tween-20 (PBST) or TBS with 0.1% Tween-20 (TBST) for phosphorylated proteins. Membranes were cut into appropriate segments based on the size markers, with each segment incubated with antibodies for proteins of interest diluted in 0.5% skim milk in PBST/TBST or 5% BSA overnight at 4° C. (Refer to Table 4 for the list of antibodies). Blots were then washed for 3×5 minutes in PBST/TBST followed by incubation for 1 hour at room temperature with appropriate secondary antibodies (See Table 5) diluted 1:5000 in 0.5% skim milk or 5% BSA in PBST/TBST. Blots were washed for 3×5 minutes in PBST/TBST before incubation with SuperSignal West Pico Chemiluminescent Substrate (ThermoFisher Scientific) for 5 minutes at room temperature. Blots were then exposed to a Luminescent Image Analyser (LAS-4000, Fujifilm).
To investigate the precise function of ZNF827 in the ATR pathway, the effect of ZNF827 depletion on the downstream effectors of ATR was examined. To activate ATR, U-2 OS cells were treated with DNA damage and replication stress inducing agents topotecan 2 μg/mL for 24 hours or aphidicolin 1 μM for 20 hours. […] Phosphorylation of CHK2 was not affected by ZNF827 depletion, further supporting that the role of ZNF827 in DNA damage and repair is independent of ATM (FIG. 6d).

Compound | drug sensitivity in cell lines with low ZNF827 compared to cell lines with normal ZNF827 expression (panel of 660 cell lines) | phosphorylation of CHK1 S345 (ATR-CHK1 pathway)
O=C(CCCCCCC(=O)Nc1ccccc1)NO [Vorinostat] | Increased sensitivity | –
CC1(C)CC(=O)c2c(C(F)(F)F)nn(-c3ccc(C(N)=O)c(N[C@H]4CC[C@H](O)CC4)c3)c2C1 [SNX-2112] | Increased sensitivity | –
Cc1ccc(C(=O)Nc2cccc(C(F)(F)F)c2)cc1Nc1nc(-c2cccnc2)nc2c1cnn2C [NVP-BHG712] | Increased sensitivity | –
O=S(=O)(c1ccccc1)N(CC(F)(F)F)c1ccc(C(O)(C(F)(F)F)C(F)(F)F)cc1 [T0901317] | Increased sensitivity | –
CCN(CC)CCNC(=O)c1c(C)[nH]c(/C=C2\C(=O)Nc3ccc(F)cc32)c1C.O=C(O)C[C@H](O)C(=O)O [Sunitib] | Increased sensitivity | –
TL-1-85 | Increased sensitivity | –
KIN001-260 | Increased sensitivity | –
O=C(NOCC1CC1)c1ccc(F)c(F)c1Nc1ccc(I)cc1Cl [CI-1040] | Increased sensitivity | –
Nc1[nH]nc2nnc(-c3c(-c4ccccc4)nn4ccccc34)cc12 [FR-180204] | Increased sensitivity | –
C[C@@]1(CO)[C@H](O)CC[C@@]2(C)[C@H]1CC[C@H]1C[C@@H]3C[C@@]12CC[C@]3(O)CO [aphidicolin] | – | became phosphorylated at S345
THZ-2-49 | Increased sensitivity | –
Cn1cc(/C=C2\C(=O)Nc3cccnc32)c2ccccc21 [GW441756] | Increased sensitivity | –
O=c1[nH]c2ccccc2n1C1CCN(Cc2ccc(-c3nc4cc5[nH]cnc5cc4nc3-c3ccccc3)cc2)CC1 [AKT inhibitor VIII] | Increased sensitivity | –
[H]/N=C(/N)N/C(=N/[H])NCCc1ccccc1 [Phenformin] | Increased sensitivity | –
O=C(NOC[C@H](O)CO)c1ccc(F)c(F)c1Nc1ccc(I)cc1F [PD0325901] | Increased sensitivity | –
O=C(N[C@@H](COc1ccc2[nH]c(=O)[nH]c2c1)c1ccccc1)c1cccn(Cc2ccc(F)c(F)c2)c1=O [KIN001-244] | Increased sensitivity | –

Compound | drug sensitivity in cell lines with low ZNF827 compared to cell lines with normal ZNF827 expression (panel of 660 cell lines) | phosphorylation of CHK1 S345 (ATR-CHK1 pathway)
CCCC(=O)OCc1ccc(OC(=O)/C=C(C)/C=C/C=C(C)/C=C/C2=C(C)CCCC2(C)C)cc1 [VNLG-124] | Increased sensitivity | –
CCc1nc(-c2cccc(C)c2)c(-c2ccnc(NC(=O)c3ccccc3)c2)s1 [TAK-715] | Increased sensitivity | –
Cc1ccc(NC(=O)c2ccc(CN3CCN(C)CC3)cc2)cc1Nc1nccc(-c2cccnc2)n1 [Imatinib] | Increased sensitivity | –
TL-2-105 | Increased sensitivity | –
Cc1cn(-c2cc(NC(=O)c3ccc(C)c(Nc4nccc(-c5cccnc5)n4)c3)cc(C(F)(F)F)c2)cn1 [Nilotinib] | Increased sensitivity | –
Cc1ccc(-c2c(C(=O)CF)n(CCCO)c3ncnc(N)c23)cc1 [FMK] | Increased sensitivity | –
COc1cc(C(=O)NC2CCN(C)CC2)ccc1Nc1ncc2c(n1)N(C1CCCC1)C(C)CC(=O)N2C (centres unmarked) [NPK76-II-72-1] | Increased sensitivity | –
KIN001-236 | Increased sensitivity | –
CC1=C(/C=C/C(C)=C/C=C/C(C)=C/C(=O)O)C(C)(C)CCC1 [Tretinoin] | Increased sensitivity | –
O=C(Nc1ccc(OC(F)(F)F)cc1)c1sccc1NCc1ccnc2ccccc12 [OSI-930] | Increased sensitivity | –
Cc1ccc(NC(=O)c2cccc(C(C)(C)C#N)c2)cc1Nc1ccc2ncn(C)c(=O)c2c1 [AZ628] | Increased sensitivity | –
C=C(c1ccc(C(=O)O)cc1)c1cc2c(cc1C)C(C)(C)CCC2(C)C [Bexarotene] | Increased sensitivity | –
NC(=O)c1ccc(N(C(N)=O)c2c(F)cccc2F)nc1-c1ccc(F)cc1F [VX-702] | Increased sensitivity | –
CC/C(=C(\c1ccccc1)c1ccc(OCCN(C)C)cc1)c1ccccc1 [Tamoxifen] | Increased sensitivity | –
CCNC(=O)C[C@@H]1N=C(c2ccc(Cl)cc2)c2cc(OC)ccc2-n2c(C)nnc21 [I-BET-762] | Increased sensitivity | –
CN(C)C/C=C/C(=O)Nc1ccc(C(=O)Nc2cccc(Nc3ncc(Cl)c(-c4c[nH]c5ccccc45)n3)c2)cc1 [THZ-2-102-1] | Increased sensitivity | –
